Here are results for 16 compounds from PMC8856110, “Comparative chemical and biological hydrolytic stability of homologous esters and isosteres” (Journal of Enzyme Inhibition and Medicinal Chemistry, 2022).

Like-named read-outs stand apart in the source and are kept apart here.

A short description of series [1]: Hydrolytic study using rat liver microsomes. Type of series: in vitro ADME. The settings on record: male, Wistar, 1 mg/mL microsomal fraction, absence of cofactor, 37 °C, read-out: Hydrolysis t1/2 Rat liver microsomes. The method, then: Rat liver microsomes were obtained from male Wistar rats (280–330 g) and prepared according to the methodology described by Cabrera and co-workers[17]. After obtaining rat liver microsomes, the protein quantification was done by a bicinchoninic acid assay using a commercial protein determination kit obtained from Sigma-Aldrich (St Louis MO, USA)[18]. […] The reaction was stopped by adding organic solvents at ice-cold temperature (i.e., 500 µL of methanol and 500 µL of acetonitrile).
(ii) Compounds 8–9: 0–15 min. A:B 40:60 v/v. (iii) Compounds 13–16: 0–4 min. […] A:B 60:40 v/v.
Given those results, we decided to study the comparative metabolic behaviour of the esters 1 and 2, 5 and 6, 11 and 12, using another biological matrix rich in carboxylesterases. Therefore, the kinetics of hydrolysis was established using rat liver microsomes in the absence of cofactor in order to prevent eventual oxidative metabolic reactions catalysed by CYP450 or FMO.

A short description of series [2]: Base-catalysed (alkaline) hydrolysis with LiOH in THF:H2O. The settings on record: for half-life at 2.5 g/L: LiOH in tetrahydrofuran/water (6:4).
Method: (§1) The reaction was started by adding LiOH (24 μL, 1 mol/l), and the mixture was incubated at 37 °C for 5, 10, 20, and 30 min, under stirring in a water bath. At the end of the incubation period, an aliquot (20 μL) was transferred to a new tube, and subsequently, HCl (0.3 μL, 10% v:v) was added. The pH of the sample was checked to verify neutralisation, and acetonitrile (480 μL) was added. The final concentrations of all compounds in the solution were 2,5 g/L. Finally, the samples were filtered through PVDF syringe filters (Millex®: 0.22 µm pore size) and analysed by HPLC[15].
(§2) A Shimadzu Prominence HPLC system (Shimadzu, Tokyo, Japan) consisting of a UV/VIS Photodiode Array Detector (SPD-M20A), a binary pump (LC-20AD), a vacuum degasser (DGU-20A5), and an autosampler (SIL-20A) was used for analyses. The Chromatographic separation was achieved using a reversed phase (Kromasil® C18 HPLC Column: particle size 5 µm, L × I.D. 250 × 4.6 mm) preceded by a guard column (Phenomenex® C18: 4 × 3 mm). The column was held at ambient temperature (22 ± 2 °C). For the selection of the wavelength, the diode array-detector was used. To avoid interference with impurities, the longest suitable wavelength was chosen to evaluate the chromatograms, which allowed for sensitivity. The mobile phase was a combination of eluent A (0.1% formic acid) and eluent B (acetonitrile). Three mobile phases were carried out using an injection volume of 20 µL and an flow rate set at 1.0 ml/min. […] A:B 40:60 v/v. […] A:B 90:10 v/v; 4–8 min. linear-gradient from 90% A to A:B 60:40 v/v; 8–12 min. A:B 60:40 v/v.
(§3) The time in minutes required to reduce half the initial amount of each ester compound (i.e., half-life - t1/2) was calculated using the expression t1/2 = 0.693/a, with "a" being the slope of the natural log of concentration of the sample vs. the incubation time.
Series [3] is described as follows: Rat plasma hydrolytic study. Conditions: for half-life at 500 μM: male, Wistar, rat, rat plasma (80% in phosphate buffer), pH 7.4.
Method: (§4) Rat plasma was obtained from male Wistar rats’ blood and diluted in phosphate buffer (pH 7.4) to obtain a final plasma concentration of 80%. […] The sample was incubated at 37 °C for 5, 10, 20, and 30 min, under stirring. At the end of the incubation time, the reaction was stopped by adding methanol (500 μL) and acetonitrile (500 μL), both in ice-cold temperature. The mixture was centrifuged at 13.500 rpm for 15 min at 4 °C. The organic phase was transferred to a microtube, and the IS (1.25 µL) was added. Finally, the samples were filtered through PVDF syringe filters (Millex®: 0.22 µm pore size) and analysed by HPLC[16].
as §2
(§5) The biologic hydrolysis of the esters 1–12 was carried out using rat plasma and rat liver microsomes. Each compound's half-life (t1/2) was calculated using the expression t1/2 = 0.693/a, as previously described.
The test system of series [4] is carboxylesterase (CES). Kind of series: Enzymatic inhibition study in rat plasma with CES inhibitor bis(p-nitrophenyl)phosphate. Conditions: bis(p-nitrophenyl)phosphate 1, 10, 100 µM; ester 500 µM, 90 min. It is filed as in vitro ADME. The method, then: The inhibitor was pre-incubated for 30 min at 37 °C, with (i) plasma (ii) rat liver microsomes and phosphate buffer pH 7,4 (final volume of 250 µL). […] The mixture was incubated again at 37 °C for 90 min under agitation. The analysis was performed by the same HPLC method used in the previous experiments. […] Data were expressed as percentages of inhibition.

For series [5] the following is noted: pH 7.4.
Method: as §4, §2, §5
The conditions of series [6]: buffer.
Method: as §1, §2, §3
The mark [7] stands for this setting: Hydrolysis t1/2 Alkaline, LiOH, THF:H2O, 37 °C.

In the case of `COC(=O)c1ccccc1` [Compound 1, methyl benzoate], the half-life in series [1] was 15 min. Also, the half-life at 2.5 g/L in series [2] was found to be 14 min. Further, the half-life at 500 μM in series [3] turned out to be 36 min.
Consider `CCOC(=O)c1ccccc1` [Compound 2, ethyl benzoate], for which the half-life in series [1] was found to be 12 min. For the same compound, the half-life at 2.5 g/L in series [2] (setting [7]) was 15 min. Further, in series [2] (LiOH, THF:H2O, 37 °C), the “Hydrolysis t1/2 Alkaline” value is recorded as 14 min. For the same compound, the half-life at 500 μM in series [3] was 17 min. Besides, in series [4], the “Metabolism in rat plasma in the presence of the CES inhibitor” value is “strongly reduced”.
Regarding `CCCOC(=O)c1ccccc1` [Compound 3, n-propyl benzoate], in series [2], the half-life at 2.5 g/L worked out at 19 min. Besides, the half-life at 500 μM in series [3] turned out to be 10 min.
For `CCCCOC(=O)c1ccccc1` [Compound 4, n-butyl benzoate] the same measures were 21 min and 10 min.
As for `O=C(Oc1ccccc1)c1ccccc1` [Compound 5, phenyl benzoate], in series [1], the half-life worked out at 10 min. The compound also gave a half-life at 2.5 g/L in series [2] of 11 min. This compound returned a half-life at 500 μM in series [3] of 7 min.
For `O=C(OCc1ccccc1)c1ccccc1` [Compound 6, benzyl benzoate] the same measures were 13 min, 16 min and 12 min.
Take `COC(=O)Cc1ccccc1` [Compound 8, methyl 2-phenylacetate]: the half-life at 2.5 g/L in series [2] (setting [7]) is 39 min. Further, the half-life at 500 μM in series [3] came out at 3 min. The “Loss of plasma metabolic stability relative to ester 1” value in series [3] (rat plasma, versus ester 1) is recorded as “twelve times less stable”.
On to `CC(=O)Oc1ccccc1` [Compound 9], for which, in series [2] (setting [7]), the half-life at 2.5 g/L was found to be 58 min. Besides, the half-life at 500 μM in series [3] turned out to be 19 min.
Compound `CCOC(=O)c1ccccc1Br` [Compound 10, ethyl 2-bromobenzoate] yielded a half-life at 2.5 g/L in series [2] of 15 min. Besides, the half-life at 500 μM in series [3] was determined as 10 min.
`CCOC(=O)c1cccc(Br)c1` [Compound 11, ethyl 3-bromobenzoate]: the half-life in series [1] stood at 12 min. This compound also registered a half-life at 2.5 g/L in series [2] of 25 min. The half-life at 500 μM in series [3] amounted to 11 min.
For the compound `CCOC(=O)c1ccc(Br)cc1` [Compound 12, ethyl 4-bromobenzoate], the half-life in series [1] turned out to be 10 min. The half-life at 2.5 g/L in series [2] was 12 min. Moreover, the half-life at 500 μM in series [3] amounted to 12 min.
In the case of `CCOC(=O)c1ccc(N)cc1` [Compound 13, ethyl 4-aminobenzoate, reference compound], the half-life at 500 μM in series [3] was determined as 13 min.
`COC(=O)c1ccc(N)cc1` [Compound 14, methyl 4-aminobenzoate] had a half-life at 500 μM in series [3] of 27 min.
`CCOC(=O)c1ncn2c1CN(C)C(=O)c1cc(F)ccc1-2` [Compound 15, flumazenil, reference compound]: the half-life at 500 μM in series [3] worked out at 89 min. In series [3] (rat plasma, versus 16), the “Times less stable to plasma hydrolysis than methyl homologous 16” value amounted to 2.7 times.
As to `COC(=O)c1ncn2c1CN(C)C(=O)c1cc(F)ccc1-2` [Compound 16, methyl 8-fluoro-5-methyl-6-oxo-4H-imidazo[1,5-a][1,4]benzodiazepine-3-carboxylate], in series [3], the half-life at 500 μM stood at 238 min.
As for methyl 2-naphthoate [Compound 7], the “Hydrolysis t1/2 Rat plasma” value in series [5] came out at 17 min. Also, in series [6], the “Hydrolysis t1/2 Alkaline” value came to 29 min.
